Data: US12042479B2, “Use of topical formulations of cannabinoids in the treatment of epidermolysis bullosa and related connective tissue disorders” (priority 2016, dated 2024)
Entries after “also recorded” stand apart in the source; their conditions may differ. Where two headings read alike, the source gives them in different places.

Key:
[1] = system: keratins K5, K6, K14, K15, K16, K17; assay: Keratin expression in HaCaT keratinocytes by Western blot; assay type: cell-based, human; details: for expression of K15: Western blot, cells pretreated with IFNγ/TNFα, FIG. 6 right; for K5 protein expression / K14 protein expression / K15 protein expression / K16 protein expression / K17 protein expression: post-differentiating human keratinocyte cells, concentration dependent effect, FIG. 20
Description: Cell culturing was performed as follows: HaCaT, human immortalized keratinocyte cell line was cultured in Dulbecco's Modified Eagle Medium (DMEM; Life Technologies Hungary Ltd.) supplemented with 10 (V/V) % fetal bovine serum (FBS; Life Technologies Hungary Ltd.) and antibiotics mixture (penicillin and streptomycin in 1:100; PAA Laboratories GmbH, Pasching, Austria) and Fungizone® Antimicotic (in 1:200; Life Technologies Hungary Ltd.) respectively.
Cells were cultured at 37° C. in humidified, 5% CO2-containing atmosphere, the medium was changed every other day, and cells were sub-cultured at 70-80% confluence in all cases. For the drug treatment, the medium was changed every day.
Western blotting was used to determine the expression of keratins in HaCaT cells. The initial cell count was 2×10^5 cells/per Petri dish in “small” (d=35 mm) Petri dishes in 1.5 mL culture medium (DMEM supplemented with FBS (10%), antibiotics and antimycotics). Cells were harvested at the following stages: preconfluent (proliferating) and postconfluent (differentiating). The combinations employed for Western blotting were cannabidiols:cannabinol (1:0.1 μM), cannabidiols:cannabinol (0.1:1 μM), and cannabidiols:cannabinol (1:1 μM). The genes whose expression was investigated by Western blotting were GAPDH or β-actin as internal controls and (K1), K5, K6, (K10), K14, K15, K16, and K17. Protein samples were used at 5 μl/well. The standards used were PageRuler Plus Prestained (Pierce). Electrophoresis was at 100 volts.
Transfer was performed using the Trans-Blot® Turbo™ Transfer System (1.3 A, 25 V, 7 min). The primary antibody was used at 1:100 in 5% milk containing PBS; overnight at 4° C.; the primary antibody was guinea pig anti-human keratins: anti human Keratin 1, Keratin 5, Keratin 6, Keratin 14, Keratin 15, Keratin 16, Keratin 17 (from Lutz Langbein; predicted band: […]). The secondary antibody was used at 1:1000 in 5% milk containing PBS; 1 hr at RT; the secondary antibody was HRP-conjugated goat anti-Guinea Pig IgG (Santa Cruz). The loading controls were Rabbit anti-human GAPDH (Novus Biologicals; Cat. No.: NB300-322; predicted band: ˜37 kDa) or anti-human β-actin (Sigma-Aldrich; Cat. No.: A2668; predicted band: ˜42 kDa) 1:1000 in 5% milk containing PBS. HRP-conjugated goat anti-rabbit IgG Fc-segment (BioRad 170-6515; 1:1000) was used.
For statistical analysis, data were analyzed and graphs were plotted by using Origin Pro Plus 6.0 software (Microcal, Northampton, MA, USA), using Student's two-tailed two samples t-test and P<0.05 values were regarded as significant differences.

[2] = Skin penetration, Franz diffusion cell; assay type: in vitro ADME, porcine; details: after 18 hours at 32° C.; 400 μg applied; LABRASOL/Plo-gel formulation; FIG. 18
Description: Skin penetration of formulations described herein was measured according to the following procedure: the formulation was LABRASOL® (caprylocaproyl polyoxyl-8 glycerides), Plo-gel (Poloxomer 407, Lecithin, isopropyl palmitate). The formulation is applied to the center part of the circle and is rubbed to the skin using a […]. The sample is mounted to the top of a Franz diffusion cell with the outer layer of the skin facing upward. The receptor medium of the Franz cell is filled with phosphate buffer. The cap of the cell is mounted and clamped. This construct is placed inside the incubator/shaker for 18 hours at 32° C. (FIG. 14).

CCL2/MCP-1 = assay type: cell-based, human
IL-8 = IL-8 production by human keratinocytes; assay type: cell-based; details: basal, FIG. 13
IL-6 = assay: IFNγ/TNFα-induced IL-6 production by human keratinocytes; assay type: cell-based; details: FIG. 13
[3] = system: keratins K5, K6, K14, K15, K16, K17; assay: Keratin expression in HaCaT keratinocytes by Western blot; assay type: cell-based, human; details: 10 μM
fibronectin-EDA = assay: TGFβ1-induced fibronectin-EDA expression in HaCaT keratinocytes (immunoblot); assay type: cell-based; details: human keratinocytes; fibronectin-EDA/β-tubulin ratio; FIG. 21, 25
Text: (§1) For western blotting in the wound healing analysis, epithelial-mesenchymal transition (EMT) is a critical element of epithelial biology, cancer development, and fibrosis. Chronic activation of TGF-β-signaling in the skin ultimately leads to fibrosis (keloid). EMT of keratinocytes is adaptive response in the normal wound healing process. It is characterized by decrease of E-cadherin (important element of keratinocyte integrity and tight junction formation) expression and upregulation of cellular fibronectin (Fibronectin-EDA) production. The latter is a very important protective element of epithelial cells during mucosal tissue repairs.
(§2) Total protein extracts were prepared from synchronized HaCaT cells at different times. […]
(§3) Assay Procedures: EMT induced by TGFβ1 in keratinocytes was analyzed by expression of human E-Cadherin (E-CDH) and Cellular Fibronectin (FBN-EDA). Fibroblast activation and differentiation was determined by αSMA expression. E-CDH, FBN-EDA and αSMA proteins were determined by SDS-PAGE and Immunobloting using mouse anti-human E-CDH, FBN-EDA and αSMA monoclonal antibodies. […] Density of the bands was quantified in two infrared channels independently using Odyssey software 2.1 (LI-COR Biosciences). The results are expressed as a protein/β-tubulin/HSP90 density ratio.

E-cadherin = assay: TGFβ1-induced E-cadherin inhibition in HaCaT keratinocytes (immunoblot); assay type: cell-based; details: human keratinocytes; E-cadherin/β-tubulin ratio; FIG. 21, 24
Text: as §1, §2, §3

CB1 receptor = CB1 receptor expression by human fibroblasts under TGFβ1 (western blot); assay type: cell-based; details: CB1 receptor/HSP90 ratio, FIG. 22
αSMA = assay: TGFβ1-induced αSMA expression in human fibroblasts (immunoblot); assay type: cell-based; details: αSMA/HSP90 ratio, FIG. 23
Description: Experimental Design: HaCaT and HFL-1 cells cultured in 24-well plates (1×10^5 cells/well/mL) in DMEM supplemented with 1% FBS and antibiotics/antimycotics in the presence of INM-501, INM-509, INM-505, INM-506, INM-513 (cannabigerol (CBG)), INM-517, HU-210 ((6aR,10aR)-9-(hydroxymethyl)-6,6-dimethyl-3-(2-methyloctan-2-yl)-6H,6aH,7H,10H,10aH-benzo[c]isochromen-1-ol)), and SR144528 (all at 1 μM concentration, EchoPharmaceuticals, AT Nijmegen, The Netherlands, Cayman Chemical, Ann Arbor, MI) alone or with simultaneously added human recombinant TGFβ1 at 10 and 20 ng/ml concentrations for 72 hr. Cell culture supernatants were removed and cells were lyzed with Cell Protein Extraction Buffer supplemented with Proteinases/Phosphatases Inhibitors Cocktail. […]
as §3

With `C=C(C)[C@@H]1CCC(C)=C[C@H]1c1c(O)cc(CCCCC)cc1O` [INM-505, cannabidiols] as the molecule, how does the “expression of K15” value [1] read?
The value was “promote”.

What about the K5 protein expression [1] of the same molecule?
Its K5 protein expression is “generally increases”.

And the K14 protein expression [1]?
Its K14 protein expression is “generally increases”.

What about the K15 protein expression [1] of the same molecule?
Its K15 protein expression is “generally increases”.

What about the K16 protein expression [1] of the same molecule?
Its K16 protein expression is “generally increases”.

And the K17 protein expression [1]?
The K17 protein expression was “generally increases”.

And the “location of cannabinoid molecules in skin” value [2]?
The value was “located in keratinocytes and basal cells”.

And the “IFNγ/TNFα-induced CCL2/MCP-1 production” value (CCL2/MCP-1)?
Its value is “upregulated; also recorded: increase”.

What about the IL-8 production (IL-8) of the same molecule?
Its IL-8 production is “highly selective inhibitory effect”.

What about the “production of IL-6 by IFNγ/TNFα” value (IL-6) of the same molecule?
Its value is “attenuate”.

With `CCCCCc1cc(O)c2c(c1)OC(C)(C)c1ccc(C)cc1-2` [INM-517, 6,6,9-trimethyl-3-pentylbenzo[c]chromen-1-ol] as the molecule, how does the K14 gene expression [3] read?
Its K14 gene expression is “downregulated”.

And the “expression of K15” value [1]?
Its value is “promote”.

And the K5 protein expression [1]?
Its K5 protein expression is “generally increases”.

What about the K14 protein expression [1] of the same molecule?
Its K14 protein expression is “generally increases”.

What about the K15 protein expression [1] of the same molecule?
Its K15 protein expression is “generally increases”.

And the K16 protein expression [1]?
Its K16 protein expression is “generally increases”.

And the K17 protein expression [1]?
The K17 protein expression was “generally increases”.

What about the “TGF-β-induced fibronectin-EDA expression” value (fibronectin-EDA) of the same molecule?
Its value is “preserving”.

And the “TGF-β-induced downregulation of E-cadherin” value (E-cadherin)?
The value was “strong and potent effect”.

Which “IFNγ/TNFα-induced CCL2/MCP-1 production” value (CCL2/MCP-1) does the source give for `CCCCCc1cc(O)c(C/C=C(\C)CCC=C(C)C)c(O)c1` [INM-513, cannabigerol] here?
The value was “upregulated”.

For `Cc1c(C(=O)NN2CCCCC2)nn(-c2ccc(Cl)cc2Cl)c1-c1ccc(I)cc1` [AM251, N-(piperidin-1-yl)-5-(4-iodophenyl)-1-(2,4-dichlorophenyl)-4-methyl-1H-pyrazole-3-carboxamide], which “cell responsiveness to TGFβ1” value (CB1 receptor) is on record?
The value was “modify”.

And the “TGFβ1-induced αSMA expression (TGFβ1-responsiveness)” value (αSMA)?
Its value is “upregulating”.

What does the source list for `CCCCCc1cc(O)c2c(c1)OC(C)(C)[C@@H]1CCC(C)=C[C@@H]21` [Δ^9-tetrahydrocannabinol]?
IFNγ/TNFα-induced CCL2/MCP-1 production (CCL2/MCP-1): no significant effects; basal CCL2 production (CCL2/MCP-1): no significant effects

For `Cc1ccc(Cn2nc(C(=O)N[C@@H]3C(C)(C)[C@@H]4CC[C@@]3(C)C4)cc2-c2ccc(Cl)c(C)c2)cc1` [SR144528, 5-(4-chloro-3-methylphenyl)-1-[(4-methylphenyl)methyl]-N-[(1S,2S,4R)-1,3,3-trimethylbicyclo[2.2.1]heptan-2-yl]-1H-pyrazole-3-carboxamide], which “basal CCL2 production” value (CCL2/MCP-1; HaCaT, 72 hr, method prints 1 mM, b249 prints 1 μM) is on record?
The value was “did not significantly change”.

And the “IFNγ/TNFα-induced CCL2/MCP-1 production” value (CCL2/MCP-1; HaCaT, IFNγ and TNFα 10 ng/ml, 72 hr, method prints 1 mM, b249 prints 1 μM)?
The value was “did not significantly change”.

With `COc1ccc(C(=O)c2c(C)n(CCN3CCOCC3)c3cc(I)ccc23)cc1` [AM630, 6-iodopravadoline] as the molecule, how does the “cell responsiveness to TGFβ1” value (CB1 receptor) read?
Its value is “modify”.

Which “IFNγ/TNFα-induced CCL2/MCP-1 production” value (CCL2/MCP-1) does the source give for `CCCCCCC(C)(C)c1cc(O)c2c(c1)OC(C)(C)[C@@H]1CC=C(CO)C[C@@H]21` [HU-210, (6aR,10aR)-9-(hydroxymethyl)-6,6-dimethyl-3-(2-methyloctan-2-yl)-6H,6aH,7H,10H,10aH-benzo[c]isochromen-1-ol] here?
Its value is “upregulated; also recorded: highest effect; also recorded: increase”.
